Where two headings read alike, the source gives them in different places.
Key:
carrageenin edema = assay: Anti-inflammatory effect (carrageenin edema, hind paw, rat); assay type: in vivo, Wistar-strain male rats; details: oral, 3 hours after carrageenin, read-out: anti-inflammatory effect (inhibition percentage of carrageenin edema)
Description: A group of five Wistar-strain male rats (100-150 g) were orally administered with each test compound suspended in 0.5 % tragacanth-saline solution. After 30 minutes 0.5 %-1.0 % carrageenin suspended in the water for injection was injected subcutaneously to a hind paw. After 3 hours the carrageenin edema was measured by volume and the inhibition percentage was determined with respect to the results for the control animals. The inhibition percentages were shown with the notations as follows: […]

[1] = test system: acetic acid writhing syndrome; assay: Analgetic effect (acetic acid writhing, mouse); assay type: in vivo, dd-strain male mice; details: oral, read-out: analgetic effect ED50 (95% C.L.)
Excerpt: Each test compound suspended in 0.5 % tragacanth-saline solution was orally administered to dd-strain male mice (18-20 g). After one hour 0.6 % acetic acid solution was intraperitoneally injected in a volume of […].

righting reflex = assay: Central nervous system depressive effect (disappearance of righting reflex, mouse); assay type: in vivo, dd-strain male mice; details: ip, read-out: CNS depressive effect (dose required for disappearance of righting reflex)
Description: Each test compound suspended in 0.5 % tragacanth-saline solution was injected intraperitoneally to dd-strain male mice (16-24 g). The disappearance of righting reflex was observed under noiseless circumstances. The dose required for the dissappearance of righting reflex is indicated with the following notations: […]

dd-strain male mice = assay type: in vivo; details: mouse, 72 hours
Description: The lethal dose was estimated from the death of animals 72 hours after administration.

Compound | inhibition in vivo at 10 mg/kg (carrageenin edema) | inhibition in vivo at 50 mg/kg (carrageenin edema) | ED50 [1] | minimal effective dose (righting reflex; mouse) | acute toxicity (lethal dose) (dd-strain male mice; i.p.) | acute toxicity (lethal dose) (dd-strain male mice; p.o.) | minimal effective dose (righting reflex; Mus musculus)
CC(C)n1c(=O)c2ccccc2n(-c2cccc([N+](=O)[O-])c2)c1=O | 16 to 30% | 46 to 60% | 2.9 mg/kg | 30 to 100 mg/kg | > 1000 mg/kg | > 2000 mg/kg | –
O=c1c2ccccc2n(-c2cccc([N+](=O)[O-])c2)c(=O)n1CC1CC1 | 31 to 45% | 46 to 60% | – | 100 to 300 mg/kg | 1000 mg/kg | – | –
C#CCn1c(=O)c2ccccc2n(-c2cccc([N+](=O)[O-])c2)c1=O | < 15% | 31 to 45% | 40 mg/kg | > 1000 mg/kg | > 1000 mg/kg | > 2000 mg/kg | –
Cn1c(=O)c2ccccc2n(-c2cccc([N+](=O)[O-])c2)c1=O [Compound 2, 1-(m-nitrophenyl)-3-methylquinazoline-2,4(1H, 3H)-dione] | 31 to 45% | 46 to 60% | 12.5 mg/kg | 100 to 300 mg/kg | > 1000 mg/kg | > 2000 mg/kg | –
CCn1c(=O)c2ccccc2n(-c2cccc([N+](=O)[O-])c2)c1=O [Compound 3, 1-(m-nitrophenyl)-3-ethylquinazoline-2,4(1H, 3H)-dione] | > 61% | > 61% | 6 mg/kg | 30 to 100 mg/kg | > 1000 mg/kg | > 2000 mg/kg | –
CCCn1c(=O)c2ccccc2n(-c2cccc([N+](=O)[O-])c2)c1=O [Compound 4, 1-(m-nitrophenyl)-3-propylquinazoline-2,4(1H,3H)-dione] | < 15% | 16 to 30% | 51 mg/kg | > 1000 mg/kg | 1000 mg/kg | > 2000 mg/kg | –
C=CCn1c(=O)c2ccccc2n(-c2cccc([N+](=O)[O-])c2)c1=O [Compound 6, 1-(m-nitrophenyl)-3-allylquinazoline-2,4(1H, 3H)-dione] | 16 to 30% | 31 to 45% | > 100 mg/kg | > 1000 mg/kg | > 1000 mg/kg | 2000 mg/kg | –
O=c1c2ccccc2n(-c2cccc([N+](=O)[O-])c2)c(=O)n1CCF [Compound 10] | > 61% | 46 to 60% | 1.48 mg/kg | 30 to 100 mg/kg | > 1000 mg/kg | > 2000 mg/kg | –
O=c1c2ccccc2n(-c2cccc([N+](=O)[O-])c2)c(=O)n1CCCl [Compound 11] | – | 16 to 30% | 5.5 mg/kg | 100 to 300 mg/kg | > 1000 mg/kg | > 2000 mg/kg | –
O=c1c2ccccc2n(-c2cccc([N+](=O)[O-])c2)c(=O)n1CC(F)(F)F [Compound 12, 1-(m-nitrophenyl)-3-(2,2,2-trifluoroethyl) quinazoline-2,4(1H, 3H)-dione] | 16 to 30% | 31 to 45% | 44 mg/kg | > 1000 mg/kg | > 1000 mg/kg | > 2000 mg/kg | –
O=c1c2ccccc2n(-c2cccc([N+](=O)[O-])c2)c(=O)n1CCO [Compound 13] | – | 31 to 45% | 2.25 mg/kg | 10 to 30 mg/kg | – | 2000 mg/kg | –
CCOCCn1c(=O)c2ccccc2n(-c2cccc([N+](=O)[O-])c2)c1=O [Compound 16, 1-(m-nitrophenyl)-3-(2-ethoxyethyl)quinazoline-2,4(1H, 3H)-dione] | – | 16 to 30% | 2.15 mg/kg | 30 to 100 mg/kg | > 1000 mg/kg | > 2000 mg/kg | –
O=c1c2ccccc2n(-c2cccc([N+](=O)[O-])c2)c(=O)n1CCOCCO [Compound 17] | – | 16 to 30% | 3.7 mg/kg | 30 to 100 mg/kg | 1000 mg/kg | 2000 mg/kg | –
CC(=O)OCCn1c(=O)c2ccccc2n(-c2cccc([N+](=O)[O-])c2)c1=O [Compound 18] | – | 16 to 30% | 1.7 mg/kg | 10 to 30 mg/kg | > 1000 mg/kg | 2000 mg/kg | –
Cn1c(=O)c2ccccc2n(-c2cccc([N+](=O)[O-])c2)c1=S [Compound 23] | < 15% | 16 to 30% | > 100 mg/kg | > 1000 mg/kg | > 1000 mg/kg | – | –
CCn1c(=O)c2ccccc2n(-c2cccc([N+](=O)[O-])c2)c1=S [Compound 24, 1-(m-nitrophenyl)-3-ethyl-2-thio-4-oxo-1,2,3,4-tetrahydroquinazoline] | 31 to 45% | 46 to 60% | 3.4 mg/kg | 300 to 1000 mg/kg | > 1000 mg/kg | – | –
O=c1c2ccccc2n(-c2cccc([N+](=O)[O-])c2)c(=S)n1CC(F)(F)F [Compound 26] | – | < 15% | > 100 mg/kg | > 1000 mg/kg | > 1000 mg/kg | > 2000 mg/kg | –
CCn1c(=O)c2ccccc2n(-c2cccc(C(F)(F)F)c2)c1=O [R1=drawing 18, R2=C2 H5, reference compound] | < 15% | 31 to 45% | > 100 mg/kg | > 1000 mg/kg | 456 mg/kg | > 4000 mg/kg | –
O=c1c2ccccc2n(-c2cccc(C(F)(F)F)c2)c(=O)n1CCO [R1=drawing 18, R2=CH2 CH2 OH, reference compound] | < 15% | 31 to 45% | 35 mg/kg | 30 to 100 mg/kg | 200 mg/kg | 970 mg/kg | –
O=C(O)c1ccccc1Nc1cccc(C(F)(F)F)c1 [flufenamic acid, reference compound] | – | – | – | > 1000 mg/kg | – | – | –
Cc1ccccc1-n1c(C)nc2ccccc2c1=O [methaqualone, reference compound] | – | – | – | – | – | – | 10 to 30 mg/kg
CCCCC1C(=O)N(c2ccccc2)N(c2ccccc2)C1=O [phenylbutazone, reference compound] | – | – | – | 300 to 1000 mg/kg | – | – | –

Reference: patent publication US4016166A, “1-Nitrophenylquinazoline-2,4(1H,3H)-diones” (Hisamitsu Pharmaceutical Co., Inc., priority 1973, dated 1977)
